# Source: patent publication US11292770B2, “Pyridazinone herbicides” (FMC Corporation, priority 2017, dated 2022)
# Test system: ryegrass, Italian (Italian ryegrass, Lolium multiflorum)
# Experiment: Test A preemergence, ryegrass, Italian
# Assay type: in vivo
# Settings: 31 g ai/ha, 0 to 100 scale
# From the text: (§1) Seeds of plant species selected from barnyardgrass (Echinochloa crus-galli), kochia (Kochia scoparia), ragweed (common ragweed, Ambrosia elation), ryegrass, Italian (Italian ryegrass, Lolium multiflorum), foxtail, green (green foxtail, Setaria viridis), and pigweed (Amaranthus retroflexus) were planted into a blend of loam soil and sand and treated preemergence with a directed soil spray using test chemicals formulated in a non-phytotoxic solvent mixture which included a surfactant. At the same time, plants selected from these weed species and also wheat (Triticum aestivum), corn (Zea mays), blackgrass (Alopecurus myosuroides), and galium (catchweed bedstraw, Galium aparine) were planted in pots containing the same blend of loam soil and sand and treated with postemergence applications of test chemicals formulated in the same manner Plants ranged in height from 2 to 10 cm and were in the one- to two-leaf stage for the postemergence treatment. Treated plants and untreated controls were maintained in a greenhouse for approximately 10 d, after which time all treated plants were compared to untreated controls and visually evaluated for injury. Plant response ratings, summarized in Table A, are based on a 0 to 100 scale where 0 is no effect and 100 is complete control. A dash (—) response means no test result.
row,SMILES,"Plant response rating, Ryegrass, Italian"
1,"Cn1nc(Cl)c(O)c(-c2c3ccccc3c(Cl)c3ccccc23)c1=O [Compound 2, 6-chloro-4-(10-chloro-9-anthracenyl)-5-hydroxy-2-methyl-3(2H)-pyridazinone]",20

# Same assay, conditions: 125 g ai/ha, 0 to 100 scale
row,SMILES,"Plant response rating, Ryegrass, Italian"
1,"Cn1nc(Cl)c(O)c(-c2c3ccccc3c(Cl)c3ccccc23)c1=O [Compound 2, 6-chloro-4-(10-chloro-9-anthracenyl)-5-hydroxy-2-methyl-3(2H)-pyridazinone]",70

# Test system: kochia (Kochia scoparia)
# Experiment: Test A preemergence, kochia
# Assay type: in vivo
# Settings: 31 g ai/ha, 0 to 100 scale
# From the text: as §1
row,SMILES,"Plant response rating, Kochia"
1,"Cn1nc(Cl)c(O)c(-c2c3ccccc3c(Cl)c3ccccc23)c1=O [Compound 2, 6-chloro-4-(10-chloro-9-anthracenyl)-5-hydroxy-2-methyl-3(2H)-pyridazinone]",0

# Same assay, conditions: 125 g ai/ha, 0 to 100 scale
row,SMILES,"Plant response rating, Kochia"
1,"Cn1nc(Cl)c(O)c(-c2c3ccccc3c(Cl)c3ccccc23)c1=O [Compound 2, 6-chloro-4-(10-chloro-9-anthracenyl)-5-hydroxy-2-methyl-3(2H)-pyridazinone]",10

# Test system: barnyardgrass (Echinochloa crus-galli)
# Experiment: Test B flooded paddy test, barnyardgrass
# Assay type: in vivo
# Settings: Flood, 250 g ai/ha; scale of 0 to 100, 0 no effect, 100 complete control
# Method: (§2) Plant species in the flooded paddy test selected from rice (Oryza sativa), sedge, umbrella (small-flower umbrella sedge, Cyperus difformis), ducksalad (Heteranthera limosa), and barnyardgrass (Echinochloa crus-galli) were grown to the 2-leaf stage for testing. At the time of treatment, test pots were flooded to 3 cm above the soil surface, treated by application of test compounds directly to the paddy water, and then maintained at that water depth for the duration of the test. Treated plants and controls were maintained in a greenhouse for 13 to 15 d, after which time all species were compared to controls and visually evaluated. Plant response ratings, summarized in Table B, are based on a scale of 0 to 100 where 0 is no effect and 100 is complete control. A dash (—) response means no test result.
row,SMILES,"Plant response rating, Barnyardgrass"
1,"Cn1nc(Cl)c(O)c(-c2c3ccccc3c(Cl)c3ccccc23)c1=O [Compound 2, 6-chloro-4-(10-chloro-9-anthracenyl)-5-hydroxy-2-methyl-3(2H)-pyridazinone]",0

# Test system: ragweed (common ragweed, Ambrosia elation)
# Experiment: Test A postemergence, ragweed
# Assay type: in vivo
# Settings: 31 g ai/ha, 0 to 100 scale
# From the text: as §1
row,SMILES,"Plant response rating, Ragweed"
1,"Cn1nc(Cl)c(O)c(-c2c3ccccc3c(Cl)c3ccccc23)c1=O [Compound 2, 6-chloro-4-(10-chloro-9-anthracenyl)-5-hydroxy-2-methyl-3(2H)-pyridazinone]",90

# Same assay, conditions: 125 g ai/ha, 0 to 100 scale
row,SMILES,"Plant response rating, Ragweed"
1,"Cn1nc(Cl)c(O)c(-c2c3ccccc3c(Cl)c3ccccc23)c1=O [Compound 2, 6-chloro-4-(10-chloro-9-anthracenyl)-5-hydroxy-2-methyl-3(2H)-pyridazinone]",90

# Test system: blackgrass (Alopecurus myosuroides)
# Experiment: Test A postemergence, blackgrass
# Assay type: in vivo
# Settings: 31 g ai/ha, 0 to 100 scale
# From the text: as §1
row,SMILES,"Plant response rating, Blackgrass"
1,"Cn1nc(Cl)c(O)c(-c2c3ccccc3c(Cl)c3ccccc23)c1=O [Compound 2, 6-chloro-4-(10-chloro-9-anthracenyl)-5-hydroxy-2-methyl-3(2H)-pyridazinone]",0

# Same assay, conditions: 125 g ai/ha, 0 to 100 scale
row,SMILES,"Plant response rating, Blackgrass"
1,"Cn1nc(Cl)c(O)c(-c2c3ccccc3c(Cl)c3ccccc23)c1=O [Compound 2, 6-chloro-4-(10-chloro-9-anthracenyl)-5-hydroxy-2-methyl-3(2H)-pyridazinone]",60

# Test system: rice (Oryza sativa)
# Experiment: Test B flooded paddy test, rice
# Assay type: in vivo
# Settings: Flood, 250 g ai/ha; scale of 0 to 100
# Method: as §2
row,SMILES,"Plant response rating, Rice"
1,"Cn1nc(Cl)c(O)c(-c2c3ccccc3c(Cl)c3ccccc23)c1=O [Compound 2, 6-chloro-4-(10-chloro-9-anthracenyl)-5-hydroxy-2-methyl-3(2H)-pyridazinone]",0

# Test system: pigweed (Amaranthus retroflexus)
# Experiment: Test A preemergence, pigweed
# Assay type: in vivo
# Settings: 31 g ai/ha, 0 to 100 scale
# From the text: as §1
row,SMILES,"Plant response rating, Pigweed"
1,"Cn1nc(Cl)c(O)c(-c2c3ccccc3c(Cl)c3ccccc23)c1=O [Compound 2, 6-chloro-4-(10-chloro-9-anthracenyl)-5-hydroxy-2-methyl-3(2H)-pyridazinone]",100

# Same assay, conditions: 125 g ai/ha, 0 to 100 scale
row,SMILES,"Plant response rating, Pigweed"
1,"Cn1nc(Cl)c(O)c(-c2c3ccccc3c(Cl)c3ccccc23)c1=O [Compound 2, 6-chloro-4-(10-chloro-9-anthracenyl)-5-hydroxy-2-methyl-3(2H)-pyridazinone]",100

# Test system: barnyardgrass (Echinochloa crus-galli)
# Experiment: Test A postemergence, barnyardgrass
# Assay type: in vivo
# Settings: 31 g ai/ha, 0 to 100 scale
# From the text: as §1
row,SMILES,"Plant response rating, Barnyardgrass"
1,"Cn1nc(Cl)c(O)c(-c2c3ccccc3c(Cl)c3ccccc23)c1=O [Compound 2, 6-chloro-4-(10-chloro-9-anthracenyl)-5-hydroxy-2-methyl-3(2H)-pyridazinone]",0

# Same assay, conditions: 125 g ai/ha, 0 to 100 scale, 0 no effect, 100 complete control
row,SMILES,"Plant response rating, Barnyardgrass"
1,"Cn1nc(Cl)c(O)c(-c2c3ccccc3c(Cl)c3ccccc23)c1=O [Compound 2, 6-chloro-4-(10-chloro-9-anthracenyl)-5-hydroxy-2-methyl-3(2H)-pyridazinone]",20

# Test system: ragweed (common ragweed, Ambrosia elation)
# Experiment: Test A preemergence, ragweed
# Assay type: in vivo
# Settings: 31 g ai/ha, 0 to 100 scale
# From the text: as §1
row,SMILES,"Plant response rating, Ragweed"
1,"Cn1nc(Cl)c(O)c(-c2c3ccccc3c(Cl)c3ccccc23)c1=O [Compound 2, 6-chloro-4-(10-chloro-9-anthracenyl)-5-hydroxy-2-methyl-3(2H)-pyridazinone]",80

# Same assay, conditions: 125 g ai/ha, 0 to 100 scale
row,SMILES,"Plant response rating, Ragweed"
1,"Cn1nc(Cl)c(O)c(-c2c3ccccc3c(Cl)c3ccccc23)c1=O [Compound 2, 6-chloro-4-(10-chloro-9-anthracenyl)-5-hydroxy-2-methyl-3(2H)-pyridazinone]",100

# Test system: sedge, umbrella (small-flower umbrella sedge, Cyperus difformis)
# Experiment: Test B flooded paddy test, sedge, umbrella
# Assay type: in vivo
# Settings: Flood, 250 g ai/ha; scale of 0 to 100
# Method: as §2
row,SMILES,"Plant response rating, Sedge, Umbrella"
1,"Cn1nc(Cl)c(O)c(-c2c3ccccc3c(Cl)c3ccccc23)c1=O [Compound 2, 6-chloro-4-(10-chloro-9-anthracenyl)-5-hydroxy-2-methyl-3(2H)-pyridazinone]",75

# Test system: corn (Zea mays)
# Experiment: Test A postemergence, corn
# Assay type: in vivo
# Settings: 31 g ai/ha, 0 to 100 scale
# From the text: as §1
row,SMILES,"Plant response rating, Corn"
1,"Cn1nc(Cl)c(O)c(-c2c3ccccc3c(Cl)c3ccccc23)c1=O [Compound 2, 6-chloro-4-(10-chloro-9-anthracenyl)-5-hydroxy-2-methyl-3(2H)-pyridazinone]",0

# Same assay, conditions: 125 g ai/ha, 0 to 100 scale
row,SMILES,"Plant response rating, Corn"
1,"Cn1nc(Cl)c(O)c(-c2c3ccccc3c(Cl)c3ccccc23)c1=O [Compound 2, 6-chloro-4-(10-chloro-9-anthracenyl)-5-hydroxy-2-methyl-3(2H)-pyridazinone]",0

# Test system: ducksalad (Heteranthera limosa)
# Experiment: Test B flooded paddy test, ducksalad
# Assay type: in vivo
# Settings: Flood, 250 g ai/ha; scale of 0 to 100
# Method: as §2
row,SMILES,"Plant response rating, Ducksalad"
1,"Cn1nc(Cl)c(O)c(-c2c3ccccc3c(Cl)c3ccccc23)c1=O [Compound 2, 6-chloro-4-(10-chloro-9-anthracenyl)-5-hydroxy-2-methyl-3(2H)-pyridazinone]",80

# Test system: foxtail, green (green foxtail, Setaria viridis)
# Experiment: Test A postemergence, foxtail, green
# Assay type: in vivo
# Settings: 31 g ai/ha, 0 to 100 scale
# From the text: as §1
row,SMILES,"Plant response rating, Foxtail, Green"
1,"Cn1nc(Cl)c(O)c(-c2c3ccccc3c(Cl)c3ccccc23)c1=O [Compound 2, 6-chloro-4-(10-chloro-9-anthracenyl)-5-hydroxy-2-methyl-3(2H)-pyridazinone]",10

# Same assay, conditions: 125 g ai/ha, 0 to 100 scale
row,SMILES,"Plant response rating, Foxtail, Green"
1,"Cn1nc(Cl)c(O)c(-c2c3ccccc3c(Cl)c3ccccc23)c1=O [Compound 2, 6-chloro-4-(10-chloro-9-anthracenyl)-5-hydroxy-2-methyl-3(2H)-pyridazinone]",60

# Test system: barnyardgrass (Echinochloa crus-galli)
# Experiment: Test A preemergence, barnyardgrass
# Assay type: in vivo
# Settings: 31 g ai/ha, 0 to 100 scale
# From the text: as §1
row,SMILES,"Plant response rating, Barnyardgrass"
1,"Cn1nc(Cl)c(O)c(-c2c3ccccc3c(Cl)c3ccccc23)c1=O [Compound 2, 6-chloro-4-(10-chloro-9-anthracenyl)-5-hydroxy-2-methyl-3(2H)-pyridazinone]",0

# Same assay, conditions: 125 g ai/ha, 0 to 100 scale
row,SMILES,"Plant response rating, Barnyardgrass"
1,"Cn1nc(Cl)c(O)c(-c2c3ccccc3c(Cl)c3ccccc23)c1=O [Compound 2, 6-chloro-4-(10-chloro-9-anthracenyl)-5-hydroxy-2-methyl-3(2H)-pyridazinone]",0

# Test system: pigweed (Amaranthus retroflexus)
# Experiment: Test A postemergence, pigweed
# Assay type: in vivo
# Settings: 31 g ai/ha, 0 to 100 scale
# From the text: as §1
row,SMILES,"Plant response rating, Pigweed"
1,"Cn1nc(Cl)c(O)c(-c2c3ccccc3c(Cl)c3ccccc23)c1=O [Compound 2, 6-chloro-4-(10-chloro-9-anthracenyl)-5-hydroxy-2-methyl-3(2H)-pyridazinone]",100

# Same assay, conditions: 125 g ai/ha, 0 to 100 scale
row,SMILES,"Plant response rating, Pigweed"
1,"Cn1nc(Cl)c(O)c(-c2c3ccccc3c(Cl)c3ccccc23)c1=O [Compound 2, 6-chloro-4-(10-chloro-9-anthracenyl)-5-hydroxy-2-methyl-3(2H)-pyridazinone]",100

# Test system: galium (catchweed bedstraw, Galium aparine)
# Experiment: Test A postemergence, galium
# Assay type: in vivo
# Settings: 31 g ai/ha, 0 to 100 scale
# From the text: as §1
row,SMILES,"Plant response rating, Galium"
1,"Cn1nc(Cl)c(O)c(-c2c3ccccc3c(Cl)c3ccccc23)c1=O [Compound 2, 6-chloro-4-(10-chloro-9-anthracenyl)-5-hydroxy-2-methyl-3(2H)-pyridazinone]",20

# Same assay, conditions: 125 g ai/ha, 0 to 100 scale
row,SMILES,"Plant response rating, Galium"
1,"Cn1nc(Cl)c(O)c(-c2c3ccccc3c(Cl)c3ccccc23)c1=O [Compound 2, 6-chloro-4-(10-chloro-9-anthracenyl)-5-hydroxy-2-methyl-3(2H)-pyridazinone]",100

# Test system: kochia (Kochia scoparia)
# Experiment: Test A postemergence, kochia
# Assay type: in vivo
# Settings: 31 g ai/ha, 0 to 100 scale
# From the text: as §1
row,SMILES,"Plant response rating, Kochia"
1,"Cn1nc(Cl)c(O)c(-c2c3ccccc3c(Cl)c3ccccc23)c1=O [Compound 2, 6-chloro-4-(10-chloro-9-anthracenyl)-5-hydroxy-2-methyl-3(2H)-pyridazinone]",10

# Same assay, conditions: 125 g ai/ha, 0 to 100 scale
row,SMILES,"Plant response rating, Kochia"
1,"Cn1nc(Cl)c(O)c(-c2c3ccccc3c(Cl)c3ccccc23)c1=O [Compound 2, 6-chloro-4-(10-chloro-9-anthracenyl)-5-hydroxy-2-methyl-3(2H)-pyridazinone]",70

# Test system: foxtail, green (green foxtail, Setaria viridis)
# Experiment: Test A preemergence, foxtail, green
# Assay type: in vivo
# Settings: 31 g ai/ha, 0 to 100 scale
# From the text: as §1
row,SMILES,"Plant response rating, Foxtail, Green"
1,"Cn1nc(Cl)c(O)c(-c2c3ccccc3c(Cl)c3ccccc23)c1=O [Compound 2, 6-chloro-4-(10-chloro-9-anthracenyl)-5-hydroxy-2-methyl-3(2H)-pyridazinone]",0

# Same assay, conditions: 125 g ai/ha, 0 to 100 scale
row,SMILES,"Plant response rating, Foxtail, Green"
1,"Cn1nc(Cl)c(O)c(-c2c3ccccc3c(Cl)c3ccccc23)c1=O [Compound 2, 6-chloro-4-(10-chloro-9-anthracenyl)-5-hydroxy-2-methyl-3(2H)-pyridazinone]",90

# Test system: wheat (Triticum aestivum)
# Experiment: Test A postemergence, wheat
# Assay type: in vivo
# Settings: 31 g ai/ha, 0 to 100 scale
# From the text: as §1
row,SMILES,"Plant response rating, Wheat"
1,"Cn1nc(Cl)c(O)c(-c2c3ccccc3c(Cl)c3ccccc23)c1=O [Compound 2, 6-chloro-4-(10-chloro-9-anthracenyl)-5-hydroxy-2-methyl-3(2H)-pyridazinone]",0

# Same assay, conditions: 125 g ai/ha, 0 to 100 scale
row,SMILES,"Plant response rating, Wheat"
1,"Cn1nc(Cl)c(O)c(-c2c3ccccc3c(Cl)c3ccccc23)c1=O [Compound 2, 6-chloro-4-(10-chloro-9-anthracenyl)-5-hydroxy-2-methyl-3(2H)-pyridazinone]",30

# Test system: ryegrass, Italian (Italian ryegrass, Lolium multiflorum)
# Experiment: Test A postemergence, ryegrass, Italian
# Assay type: in vivo
# Settings: 31 g ai/ha, 0 to 100 scale
# From the text: as §1
row,SMILES,"Plant response rating, Ryegrass, Italian"
1,"Cn1nc(Cl)c(O)c(-c2c3ccccc3c(Cl)c3ccccc23)c1=O [Compound 2, 6-chloro-4-(10-chloro-9-anthracenyl)-5-hydroxy-2-methyl-3(2H)-pyridazinone]",50

# Same assay, conditions: 125 g ai/ha, 0 to 100 scale
row,SMILES,"Plant response rating, Ryegrass, Italian"
1,"Cn1nc(Cl)c(O)c(-c2c3ccccc3c(Cl)c3ccccc23)c1=O [Compound 2, 6-chloro-4-(10-chloro-9-anthracenyl)-5-hydroxy-2-methyl-3(2H)-pyridazinone]",80
